The values below come from patent US20030220346A1 (priority 2003, published 2003).

Data set [1] addresses T1, 5-HT1A receptor (Homo sapiens, UniProt P08908).
T1 construct: expressed in transfected cells
T1 sequence (P08908 1-422): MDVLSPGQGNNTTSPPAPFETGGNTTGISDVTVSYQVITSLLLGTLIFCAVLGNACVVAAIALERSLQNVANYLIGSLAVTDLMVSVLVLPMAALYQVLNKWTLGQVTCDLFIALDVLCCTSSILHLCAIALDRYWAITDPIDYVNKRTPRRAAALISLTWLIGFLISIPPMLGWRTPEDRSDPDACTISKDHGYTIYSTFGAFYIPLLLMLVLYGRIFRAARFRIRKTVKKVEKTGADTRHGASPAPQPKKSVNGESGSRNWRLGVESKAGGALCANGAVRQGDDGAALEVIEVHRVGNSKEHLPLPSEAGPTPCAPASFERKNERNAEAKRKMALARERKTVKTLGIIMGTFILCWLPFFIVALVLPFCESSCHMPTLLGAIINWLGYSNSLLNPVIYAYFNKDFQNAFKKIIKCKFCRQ
The data set can be described thus: human monoamine GPCR binding profile, 5-HT1A. As to conditions: at least about 30 fold to over 1500 fold lower IC50. An excerpt:
(§1) As known in the art, human monoamine GPCR binding profiles were obtained using heterologously expressed cloned human GPCRs in the binding experiments. Both pKi and IC50 (nM concentration) values were obtained as well as an average value of each from at least three determinations.

Data set [2] has as its target T2, D2A (Homo sapiens, UniProt P14416).
T2 construct: expressed in transfected cells
Nature of the data set: dopaminergic receptor binding, D2A. Conditions: result in words. As for the experimental part: as §1
(§2) Dopaminergic receptors D2A, D2B, D3, and D4 were also tested.

For data set [3], the target named is T3, D2B (Homo sapiens, UniProt P14416).
T3 construct: expressed in transfected cells
T3 sequence (P14416 1-414 isoform P14416-2): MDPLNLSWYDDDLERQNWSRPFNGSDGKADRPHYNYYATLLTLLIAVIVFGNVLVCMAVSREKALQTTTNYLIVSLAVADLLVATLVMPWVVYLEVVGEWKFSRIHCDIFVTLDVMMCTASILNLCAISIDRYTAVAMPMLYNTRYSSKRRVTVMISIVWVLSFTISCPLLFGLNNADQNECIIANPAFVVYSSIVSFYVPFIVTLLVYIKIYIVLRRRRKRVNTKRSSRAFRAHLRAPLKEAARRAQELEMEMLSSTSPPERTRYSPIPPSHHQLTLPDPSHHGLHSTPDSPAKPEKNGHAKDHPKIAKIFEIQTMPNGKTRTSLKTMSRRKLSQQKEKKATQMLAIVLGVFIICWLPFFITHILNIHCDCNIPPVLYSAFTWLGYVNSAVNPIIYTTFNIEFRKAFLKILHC
Nature of the data set: dopaminergic receptor binding, D2B. As to conditions: result in words. As for the experimental part:
as §1, §2

Data set [4] deals with T4, D3 (Homo sapiens, UniProt P35462).
T4 construct: expressed in transfected cells
T4 sequence (P35462 whole entry): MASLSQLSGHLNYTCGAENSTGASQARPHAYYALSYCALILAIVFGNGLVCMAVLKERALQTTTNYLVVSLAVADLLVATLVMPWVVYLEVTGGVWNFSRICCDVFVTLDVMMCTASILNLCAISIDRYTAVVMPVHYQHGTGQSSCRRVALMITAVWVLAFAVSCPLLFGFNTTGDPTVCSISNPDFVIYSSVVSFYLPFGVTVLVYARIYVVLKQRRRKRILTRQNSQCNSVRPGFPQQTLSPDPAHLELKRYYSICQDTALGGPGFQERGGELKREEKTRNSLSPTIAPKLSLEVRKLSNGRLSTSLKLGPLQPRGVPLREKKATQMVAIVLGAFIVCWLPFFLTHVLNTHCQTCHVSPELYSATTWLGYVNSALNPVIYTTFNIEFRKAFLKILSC
Nature of the data set: dopaminergic receptor binding, D3. As to conditions: result in words. Here is the method:
as §1, §2

The target of data set [5] is T5, Alpha 2A (Homo sapiens, UniProt P08913).
T5 construct: expressed in transfected cells
T5 sequence (P08913 1-465): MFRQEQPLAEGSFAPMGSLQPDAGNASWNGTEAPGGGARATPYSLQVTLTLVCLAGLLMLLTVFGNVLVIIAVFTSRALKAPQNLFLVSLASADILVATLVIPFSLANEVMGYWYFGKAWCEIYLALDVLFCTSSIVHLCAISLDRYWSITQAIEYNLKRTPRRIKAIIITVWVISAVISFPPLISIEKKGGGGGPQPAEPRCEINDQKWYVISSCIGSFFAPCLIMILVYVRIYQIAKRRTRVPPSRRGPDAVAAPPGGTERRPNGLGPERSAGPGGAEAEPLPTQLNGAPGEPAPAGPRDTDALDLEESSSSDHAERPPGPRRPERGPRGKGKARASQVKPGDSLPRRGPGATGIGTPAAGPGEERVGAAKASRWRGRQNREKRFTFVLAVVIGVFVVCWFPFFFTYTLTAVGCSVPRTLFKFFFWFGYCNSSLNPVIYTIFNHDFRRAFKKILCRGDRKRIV
The data set can be described thus: alpha-adrenergic receptor binding, Alpha 2A. Conditions: result in words. As for the experimental part: as §1, §2

For data set [6], the target named is T6, Alpha 2B (Homo sapiens, UniProt P18089).
T6 construct: expressed in transfected cells
T6 sequence (P18089 1-450): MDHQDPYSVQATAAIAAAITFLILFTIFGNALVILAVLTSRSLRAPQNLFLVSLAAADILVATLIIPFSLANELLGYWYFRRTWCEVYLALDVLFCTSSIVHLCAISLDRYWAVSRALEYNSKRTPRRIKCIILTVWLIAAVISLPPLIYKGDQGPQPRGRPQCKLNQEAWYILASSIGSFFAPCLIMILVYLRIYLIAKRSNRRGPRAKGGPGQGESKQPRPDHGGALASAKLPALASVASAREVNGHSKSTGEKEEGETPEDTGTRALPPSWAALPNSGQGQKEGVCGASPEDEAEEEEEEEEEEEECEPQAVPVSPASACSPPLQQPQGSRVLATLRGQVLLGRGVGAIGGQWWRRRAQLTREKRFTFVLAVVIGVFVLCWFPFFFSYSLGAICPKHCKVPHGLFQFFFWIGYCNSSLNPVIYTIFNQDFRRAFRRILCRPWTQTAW
The data set can be described thus: alpha-adrenergic receptor binding, Alpha 2B. As to conditions: result in words. As for the experimental part: as §1, §2

Data set [7] has as its target T7, Alpha 2C receptor (Homo sapiens, UniProt P18825).
T7 construct: expressed in transfected cells
T7 sequence (P18825 1-462): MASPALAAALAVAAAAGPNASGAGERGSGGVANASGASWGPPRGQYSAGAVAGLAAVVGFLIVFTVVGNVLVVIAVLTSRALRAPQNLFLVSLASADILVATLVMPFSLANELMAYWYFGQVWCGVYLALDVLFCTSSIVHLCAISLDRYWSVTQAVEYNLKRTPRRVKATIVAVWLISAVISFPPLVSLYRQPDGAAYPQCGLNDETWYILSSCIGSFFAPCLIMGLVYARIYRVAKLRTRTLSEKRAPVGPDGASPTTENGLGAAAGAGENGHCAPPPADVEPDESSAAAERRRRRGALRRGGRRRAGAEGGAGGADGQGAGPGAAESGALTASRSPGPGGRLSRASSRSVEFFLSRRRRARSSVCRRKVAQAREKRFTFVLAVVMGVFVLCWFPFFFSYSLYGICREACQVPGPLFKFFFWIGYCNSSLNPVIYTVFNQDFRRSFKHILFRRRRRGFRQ
The data set can be described thus: alpha-adrenergic receptor binding, Alpha 2C. Conditions: result in words. As for the experimental part: as §1, §2

Data set [8] can be described thus: plasma levels of 3-OH gepirone after administration of gepirone. The data set is classed as in vivo. Conditions: human subjects administered a dose of gepirone; FIG. 2; result in words. Here is the method:
“Time (H)” represents time after administration.
Each sample corresponds to a 0.5 ml plasma sample, extracted with 6 ml of (2:1) (v/v) hexane:chloroform for 1 hour. After separation by centrifuge, the organic layer is transferred to a 10 ml conical tube and 90 ul of 1% formic acid is added. The tube is vortexed for 10 minutes and centrifuged for 5 minutes. About 80 ul of the formic acid layer is transferred into injection vials for HPLC/MS analysis.

The conditions of data set [9]: cited from earlier work; for half-life: result in words.

T2 sequence (P14416 whole entry): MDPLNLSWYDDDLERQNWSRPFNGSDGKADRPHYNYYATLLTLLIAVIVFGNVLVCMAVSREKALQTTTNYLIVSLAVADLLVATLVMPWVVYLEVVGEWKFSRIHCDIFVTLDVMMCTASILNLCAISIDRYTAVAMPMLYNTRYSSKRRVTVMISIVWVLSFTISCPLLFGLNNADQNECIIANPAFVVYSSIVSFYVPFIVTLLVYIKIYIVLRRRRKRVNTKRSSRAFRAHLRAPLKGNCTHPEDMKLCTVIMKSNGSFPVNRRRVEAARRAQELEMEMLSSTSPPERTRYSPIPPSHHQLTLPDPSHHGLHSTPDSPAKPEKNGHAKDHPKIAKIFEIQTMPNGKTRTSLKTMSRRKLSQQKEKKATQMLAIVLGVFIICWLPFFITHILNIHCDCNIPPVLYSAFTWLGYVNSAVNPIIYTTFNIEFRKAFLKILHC

Consider `CC1(C)CC(=O)N(CCCCN2CCN(c3ncccn3)CC2)C(=O)C1O` (centres unmarked) [3-OH gepirone, 4,4-Dimethyl-3-hydroxy-1-[4-[4-(2-pyrimidinyl)-1-piperazinyl]butyl]-2,6-piperidinedione], for which the “selectivity for the 5-HT1A receptor compared to the 5-HT2, 5-HT6, and 5-HT7 receptors (fold lower IC50)” value in [1] is recorded as “at least 30 fold”. Moreover, in data set [2], the “dopaminergic binding at D2A” value is reported as “insignificant”. Also, the “dopaminergic binding at D2B” value in [3] is given as “insignificant”. Further, the “dopaminergic binding at D3” value in data set [4] is “insignificant”. Moreover, the “affinity at Alpha 2A” value in data set [5] is listed as “did not display significant affinity”. The “affinity at Alpha 2B” value in data set [6] is given as “did not display significant affinity”. The “binding at the Alpha 2C receptor” value in data set [7] is listed as “weak binding”. Moreover, the “plasma levels of 3-OH gepirone” value in data set [8] is “available quickly and persists in the plasma for extended periods of time”.

Consider `O=C1CC2(CCCC2)CC(=O)N1CCCCN1CCN(c2ncccn2)CC1` [buspirone], for which the half-life result in [9] is “very short”.

For `CC1(C)CC(=O)N(CCCCN2CCN(c3ncccn3)CC2)C(=O)C1` [gepirone, 4-dimethyl-1-[4-[4-(2-pyrimidinyl)-1-piperazinyl]butyl]-2,6-piperidinedione], the bioavailability in data set [9] (delivered orally) is reported as 14-18%. Moreover, in data set [9], the half-life result is listed as “very short”.
